One test relates to granzyme-B (GZM-B). Description: GZM-B expression in KHYG-1 cells (immunoblotting, real-time qPCR). The settings on record: pomalidomide 0.25-1 μM, 24 h. It counts as cell-based. The protocol:
(A) KHYG1 cells were cultured with pomalidomide (0.25-1 μM) for 24 h. (B) Isolated primary NK cells from healthy volunteers (#1, #2) were cultured with pomalidomide (0.3-1 μM) for 24 h. (C) KHYG-1 cells were transfected with Scsi or Zap-70si. After 48 h, cells were cultured for 24 h in the absence or presence (0.5 μM) of pomalidomide. Whole cell lysates and RNAs were subjected to immunoblotting using indicated Abs.
(A) KHYG-1 cells were transfected with Scsi or CRBNsi. After 48 h, cells were cultured in the absence or presence of pomalidomide (0.5 μM) for 24 h, and cell lysates immunoblotted with indicated Abs. (B) KHYG-1 cells were transfected with Scsi or Zap-70si, and then cultured for 72 h with pomalidomide (0.25 μM), in the absence of IL-2. Cells were counted and incubated with calcein AM-labeled U266 for 4 h at indicated effector/target (E/T) ratios.
(A) KHYG-1 cells were transfected with CRBN, IKZF1, or IKZF3 siRNA. The transfectants were then cultured for 24 h with pomalidomide (0.5 μM). The arrow indicates CRBN. (B) KHYG-1 cells were cultured with pomalidomide for 24 h (0.5 μM), in the presence or absence of bortezomib (BTZ; 2.5 and 5 nM). (C, D) KHYG-1 cells were cultured for 24 h with lenalidomide, pomalidomide, or CC-220 (i.e., iberdomide) (0.01-1 μM). Whole cell lysates and RNAs were subjected to immunoblotting using indicated Abs (C) and real-time q-PCR (D), respectively.
(In general: A western blot detects proteins with antibodies after separation by electrophoresis.)

In a further test the target is T1, Zap-70 (Homo sapiens, UniProt P43403).
T1 sequence (P43403 1-619): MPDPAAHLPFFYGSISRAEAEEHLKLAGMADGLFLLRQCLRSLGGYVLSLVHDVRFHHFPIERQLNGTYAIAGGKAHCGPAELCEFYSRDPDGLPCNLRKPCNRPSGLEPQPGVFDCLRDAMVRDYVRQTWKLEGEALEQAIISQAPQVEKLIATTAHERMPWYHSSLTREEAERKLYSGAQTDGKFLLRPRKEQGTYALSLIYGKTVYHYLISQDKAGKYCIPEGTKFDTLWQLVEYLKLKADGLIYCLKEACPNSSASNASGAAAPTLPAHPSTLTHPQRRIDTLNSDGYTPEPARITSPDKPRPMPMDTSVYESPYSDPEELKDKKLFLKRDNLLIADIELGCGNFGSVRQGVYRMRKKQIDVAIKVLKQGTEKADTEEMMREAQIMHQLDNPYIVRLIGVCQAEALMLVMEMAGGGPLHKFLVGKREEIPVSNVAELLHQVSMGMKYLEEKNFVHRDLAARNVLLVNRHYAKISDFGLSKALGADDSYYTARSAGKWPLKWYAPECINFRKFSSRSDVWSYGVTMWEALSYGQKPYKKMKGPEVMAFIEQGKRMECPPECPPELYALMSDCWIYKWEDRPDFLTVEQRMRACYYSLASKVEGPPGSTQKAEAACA
The test can be described thus: Saturation-transfer difference (STD) NMR binding to recombinant Zap-70. Set-up: purchased Origene, Rockville, MD. The settings on record: Pom 320 μM, Len 2.56 mM, ATP 2.56 mM, Zap-70 approximately 2 μM, deuterated PBS. The protocol:
(A) Jurkat cells were transfected with scrambled (Sc) siRNA or Zap-70 siRNA. Whole cell lysates were subjected to immunoblotting using indicated Abs. (B) Jurkat cells were treated with lenalidomide ([…]) or pomalidomide (1 and 3 μM) for 4 h and 8 h. Whole cell lysates were subjected to p-Zap ELISA assay. (C) Jurkat whole cell lysates were incubated with pomalidomide-beads in the presence or absence of competitor (1 mM free pomalidomide) for 1 h. After elution, samples were subjected to immunoblotting using anti-Zap-70 Ab. (D) Saturation-transfer difference resulting from the binding of pomalidomide to Zap-70. Pomalidomide is at 320 μM and Zap-70 is approximately 2 μM in deuterated PBS solution. […] (E) Saturation-transfer difference resulting from the binding of pomalidomide to Zap-70 in the presence of 2.56 mMATP. Pomalidomide is at 320 μM and Zap-70 is approximately 2 μM in deuterated PBS solution. […] Note that both ATP and pomalidomide show binding the Zap-70. (F) Non-cell based Zap-70 kinase assay was carried out, according to manufacturer's protocol.
(A) Saturation-transfer difference resulting from the binding of lenalidomide to Zap-70, with lenalidomide (2.56 mM) and Zap-70 (2 μM) in deuterated PBS solution. […] (B) Saturation-transfer difference resulting from the binding of lenalidomide to Zap70 in the presence of 2.56 mM ATP, with lenalidomide (2.56 mM) and Zap-70 (2 μM) in deuterated PBS solution.
Commercial recombinant Zap-70 (Origene, Rockville, MD) was prepared by gel filtration buffer exchange into deuterated phosphate-buffered saline (PBS), which removed any components of the protein storage buffer, including glycerol. Len and Pom were made as d6-DMSO stock solutions and frozen in aliquots prior to use. ATP was stored frozen in aliquots at −20° C. in deuterated PBS. NMR samples were prepared in 5 mm SampleJet tubes to a final volume of 500 μl by adding 5-20 μl of the appropriate IMiD stock solution to the buffer-exchanged protein. The final concentration of protein in the NMR samples was approximately 2 μM. […]

Here are results for one compound from patent US20240216354A1, “IMMUNOMODULATORY IMIDE DRUGS AS ZETA-CHAIN-ASSOCIATED PROTEIN KINASE 70 (ZAP70) AGONISTS AND USES THEREOF” (Dana-Farber Cancer Institute, Inc., priority 2019, published 2024).

Molecules are shown by their SMILES.

In the case of `Nc1cccc2c1C(=O)N(C1CCC(=O)NC1=O)C2=O` (centres unmarked) [pomalidomide], in the test on granzyme-B (GZM-B), the GZM-B expression result was “upregulated GZM-B expression”. In addition, at Zap-70, the “direct binding to Zap-70 (STD NMR)” value is “directly binds to Zap-70”.
